Results taken from patent US6737383B1, “Herbicidal oxadiazolidines” (priority 1999, dated 2004).

Legend:
[1] = system: sugar beet; test: Test B pre/postemergence sugar beet; format: in vivo, Beta vulgaris; details: for Sugarbeets plant response rating: Postemergence; for Plant response rating, Sugarbeets: Preemergence
Method in brief: (§1)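 Test chemicals in a non-phytotoxic solvent mixture with surfactant were sprayed preemergence onto planted seeds and postemergence onto plants 2 to 18 cm tall (1- to 4-leaf stage). After twelve to sixteen days in a greenhouse, injury was visually rated against untreated controls from 0 (no effect) to 10 (complete control).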

[2] = system: velvetleaf; test: Test B pre/postemergence velvetleaf; format: in vivo, Abutilon theophrasti; details: for Velvetleaf plant response rating: Postemergence; for Plant response rating, Velvetleaf: Preemergence
Method in brief: as §1

[3] = system: pigweed; test: Test B pre/postemergence pigweed; format: in vivo, Amaranthus retroflexus; details: for Redroot pigweed plant response rating: Postemergence; for Plant response rating, Redroot pigweed: Preemergence
Method in brief: as §1

[4] = system: smallflower flatsedge; test: Test B flood test smallflower flatsedge; format: in vivo, Cyperus difformis
Method in brief: (§2)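 Flood test on plants grown to the 2-leaf stage; treated plants kept in greenhouse twelve to sixteen days, then visually rated against controls on a 0 (no effect) to 10 (complete control) scale.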

[5] = system: bamyardgrass; test: Test B flood test barnyardgrass; format: in vivo, Echinochloa crus-galli
Method in brief: as §2

[6] = system: giant foxtail; test: Test B pre/postemergence giant foxtail; format: in vivo, Setaria faberii; details: for Giant foxtail plant response rating: Postemergence; for Plant response rating, Giant foxtail: Preemergence
Method in brief: as §1

[7] = system: blackgrass; test: Test B pre/postemergence blackgrass; format: in vivo, Alopecurus myosuroides; details: for Blackgrass plant response rating: Postemergence; for Plant response rating, Blackgrass: Preemergence
Method in brief: as §1

[8] = system: morningglory; test: Test B pre/postemergence morningglory; format: in vivo, Ipomoea hederacea; details: for Morningglory plant response rating: Postemergence; for Plant response rating, Morningglory: Preemergence
Method in brief: as §1

[9] = system: bedstraw; test: Test B pre/postemergence bedstraw; format: in vivo, Galium aparine; details: Postemergence
Method in brief: as §1

[10] = system: wild oat; test: Test B pre/postemergence wild oat; format: in vivo, Avena fatua; details: for Wild oats plant response rating: Postemergence; for Plant response rating, Wild oats: Preemergence
Method in brief: as §1

[11] = system: purple nutsedge; test: Test B pre/postemergence purple nutsedge; format: in vivo, Cyperus rotundus; details: for Nutsedge plant response rating: Postemergence; for Plant response rating, Nutsedge: Preemergence
Method in brief: as §1

[12] = system: surinam grass; test: Test B pre/postemergence surinam grass; format: in vivo, Brachiaria decumbens; details: for B. signalgrass plant response rating: Postemergence; for Plant response rating, B. signalgrass: Preemergence
Method in brief: as §1

[13] = system: crabgrass; test: Test B pre/postemergence crabgrass; format: in vivo, Digitaria sanguinalis; details: for Crabgrass plant response rating: Postemergence; for Plant response rating, Crabgrass: Preemergence
Method in brief: as §1

[14] = system: corn; test: Test B pre/postemergence corn; format: in vivo, Zea mays; details: for Corn plant response rating: Postemergence; for Plant response rating, Corn: Preemergence
Method in brief: as §1

[15] = system: wheat; test: Test B pre/postemergence wheat; format: in vivo, Triticum aestivum; details: for Wheat plant response rating: Postemergence; for Plant response rating, Wheat: Preemergence
Method in brief: as §1

[16] = system: soybean; test: Test B pre/postemergence soybean; format: in vivo, Glycine max; details: for Soybean plant response rating: Postemergence; for Plant response rating, Soybean: Preemergence
Method in brief: as §1

[17] = system: rape; test: Test B pre/postemergence rape; format: in vivo, Brassica napus; details: for Rape plant response rating: Postemergence; for Plant response rating, Rape: Preemergence
Method in brief: as §1

[18] = system: cocklebur; test: Test B pre/postemergence cocklebur; format: in vivo, Xanthium strumarium; details: for Cocklebur plant response rating: Postemergence; for Plant response rating, Cocklebur: Preemergence
Method in brief: as §1

[19] = system: rice; test: Test B flood test rice; format: in vivo, Oryza sativa
Method in brief: as §2

[20] = system: duck salad; test: Test B flood test duck salad; format: in vivo, Heteranthera limosa
Method in brief: as §2

[21] = Rate 125 g/ha, scale of 0 to 10 where 0 is no effect and 10 is complete control
[22] = Rate 500 g/ha, scale of 0 to 10 where 0 is no effect and 10 is complete control
[23] = Rate 250 g/ha, scale 0 to 10, 0 is no effect, 10 is complete control
[24] = Rate 500 g/ha, scale 0 to 10, 0 is no effect, 10 is complete control
[25] = Rate 1000 g/ha, scale 0 to 10 (0 no effect, 10 complete control)
[26] = Pre-emergence, Rate 1000 g/ha, scale 0 to 10 (0 no effect, 10 complete control)
[27] = Rate 125 g/ha, under heading Pre-emergence, flood test species, visual evaluation after twelve to sixteen days
[28] = Rate 250 g/ha, Pre-emergence (flood test species), scale 0 to 10, 0 is no effect, 10 is complete control
[29] = Rate 500 g/ha, Pre-emergence section of Table B, 0 to 10 scale (0 no effect, 10 complete control)
[30] = Rate 250 g/ha, scale 0 to 10 (0 no effect, 10 complete control)

COC(=O)C(CCO)n1c(=O)on(C(=O)N(c2ccccc2)C(C)C)c1=O (centres unmarked) [Compound 678]
Sugarbeets plant response rating [1, 21]: 0
Plant response rating, Sugarbeets [1, 21]: 0
Plant response rating, Sugarbeets [1, 22]: 0
Sugarbeets plant response rating [1, 23]: 0
Sugarbeets plant response rating [1, 24]: 0
Plant response rating, Sugarbeets [1, 25]: 0
Velvetleaf plant response rating [2, 21]: 0
Plant response rating, Velvetleaf [2, 21]: 0
Plant response rating, Velvetleaf [2, 22]: 2
Velvetleaf plant response rating [2, 23]: 0
Velvetleaf plant response rating [2, 24]: 3
Plant response rating, Velvetleaf [2, 25]: 5
Redroot pigweed plant response rating [3, 21]: 0
Redroot pigweed plant response rating [3, 25]: 5
Plant response rating, Redroot pigweed [3, 21]: 0
Plant response rating, Redroot pigweed [3, 22]: 0
Redroot pigweed plant response rating [3, 23]: 0
Redroot pigweed plant response rating [3, 24]: 2
Plant response rating, Redroot pigweed [3, 25]: 4
S. Flatsedge plant response rating [4, 26]: 0
S. Flatsedge plant response rating (0 to 10 scale, 0 is no effect, 10 is complete control) [4, 27]: 0
S. Flatsedge plant response rating [4, 28]: 0
S. Flatsedge plant response rating [4, 29]: 0
Barnyardgrass plant response rating [5, 26]: 0
Barnyardgrass plant response rating (0 to 10 scale, 0 is no effect, 10 is complete control) [5, 27]: 0
Barnyardgrass plant response rating [5, 28]: 0
Barnyardgrass plant response rating [5, 29]: 0
Giant foxtail plant response rating [6, 21]: 0
Giant foxtail plant response rating [6, 25]: 7
Plant response rating, Giant foxtail [6, 21]: 0
Plant response rating, Giant foxtail [6, 22]: 4
Giant foxtail plant response rating [6, 23]: 1
Giant foxtail plant response rating [6, 24]: 6
Plant response rating, Giant foxtail [6, 25]: 6
Blackgrass plant response rating [7, 21]: 0
Blackgrass plant response rating [7, 25]: 6
Plant response rating, Blackgrass [7, 21]: 0
Plant response rating, Blackgrass [7, 30]: 0
Plant response rating, Blackgrass [7, 22]: 0
Blackgrass plant response rating [7, 23]: 0
Blackgrass plant response rating [7, 24]: 3
Plant response rating, Blackgrass [7, 25]: 1
Morningglory plant response rating [8, 21]: 6
Plant response rating, Morningglory [8, 21]: 0
Plant response rating, Morningglory [8, 22]: 0
Morningglory plant response rating [8, 23]: 6
Morningglory plant response rating [8, 24]: 8
Plant response rating, Morningglory [8, 25]: 1
Bedstraw plant response rating [9, 21]: 0
Bedstraw plant response rating [9, 25]: 0
Bedstraw plant response rating [9, 23]: 0
Bedstraw plant response rating [9, 24]: 0
Wild oats plant response rating [10, 21]: 0
Plant response rating, Wild oats [10, 21]: 0
Plant response rating, Wild oats [10, 22]: 0
Wild oats plant response rating [10, 23]: 0
Wild oats plant response rating [10, 24]: 0
Plant response rating, Wild oats [10, 25]: 0
Nutsedge plant response rating [11, 21]: 0
Plant response rating, Nutsedge [11, 21]: 0
Plant response rating, Nutsedge [11, 22]: 0
Nutsedge plant response rating [11, 23]: 0
Nutsedge plant response rating [11, 24]: 0
Plant response rating, Nutsedge [11, 25]: 0
B. signalgrass plant response rating [12, 21]: 0
B. signalgrass plant response rating [12, 25]: 4
Plant response rating, B. signalgrass [12, 21]: 0
Plant response rating, B. signalgrass [12, 30]: 0
Plant response rating, B. signalgrass [12, 22]: 0
B. signalgrass plant response rating [12, 23]: 0
B. signalgrass plant response rating [12, 24]: 2
Plant response rating, B. signalgrass [12, 25]: 0
Crabgrass plant response rating [13, 21]: 0
Plant response rating, Crabgrass [13, 21]: 0
Plant response rating, Crabgrass [13, 30]: 0
Plant response rating, Crabgrass [13, 22]: 1
Crabgrass plant response rating [13, 23]: 0
Crabgrass plant response rating [13, 24]: 6
Plant response rating, Crabgrass [13, 25]: 3
Corn plant response rating [14, 21]: 0
Corn plant response rating [14, 25]: 0
Plant response rating, Corn [14, 21]: 0
Plant response rating, Corn [14, 30]: 0
Plant response rating, Corn [14, 22]: 0
Corn plant response rating [14, 23]: 0
Corn plant response rating [14, 24]: 0
Plant response rating, Corn [14, 25]: 0
Wheat plant response rating [15, 21]: 0
Plant response rating, Wheat [15, 21]: 0
Plant response rating, Wheat [15, 22]: 0
Wheat plant response rating [15, 23]: 0
Wheat plant response rating [15, 24]: 0
Plant response rating, Wheat [15, 25]: 0
Soybean plant response rating [16, 21]: 1
Plant response rating, Soybean [16, 21]: 0
Plant response rating, Soybean [16, 22]: 0
Soybean plant response rating [16, 23]: 2
Soybean plant response rating [16, 24]: 2
Plant response rating, Soybean [16, 25]: 0
Rape plant response rating [17, 21]: 0
Rape plant response rating [17, 25]: 2
Plant response rating, Rape [17, 21]: 0
Plant response rating, Rape [17, 22]: 0
Rape plant response rating [17, 23]: 0
Rape plant response rating [17, 24]: 0
Plant response rating, Rape [17, 25]: 0
Cocklebur plant response rating [18, 21]: 0
Cocklebur plant response rating [18, 25]: 3
Plant response rating, Cocklebur [18, 21]: 0
Plant response rating, Cocklebur [18, 30]: 0
Plant response rating, Cocklebur [18, 22]: 0
Cocklebur plant response rating [18, 23]: 0
Cocklebur plant response rating [18, 24]: 2
Plant response rating, Cocklebur [18, 25]: 0
Rice plant response rating [19, 26]: 0
Rice plant response rating (0 to 10 scale, 0 is no effect, 10 is complete control) [19, 27]: 0
Rice plant response rating [19, 28]: 0
Rice plant response rating [19, 29]: 0
Ducksalad plant response rating [20, 26]: 0
Ducksalad plant response rating (0 to 10 scale, 0 is no effect, 10 is complete control) [20, 27]: 0
Ducksalad plant response rating [20, 28]: 0
Ducksalad plant response rating [20, 29]: 0
